Series [1] relates to Plasmodium berghei ANKA strain. In words: In vivo 4-day suppressive test of P. berghei in ICR mice. Further details: species or system Plasmodium berghei (in ICR mice). The note with it: mean ± SEM, n = 5. On the procedure:
Wild-type P. berghei ANKA strain was obtained from Thomas F. McCutchan (BEI Resources, NIAID, NIH). P. berghei-infected red blood cells were administered intraperitoneally to donor mice. When parasitemia levels reached 20–30%, blood was collected from the heart using a cardiac puncture procedure and placed in a vacutainer heparinized tube for injection into experimental animals.
A 4-day suppressive test was used to measure the schizonticidal activity of HTX in P. berghei-infected ICR mice. This test was performed according to a previous method, with some modifications. All mice were intraperitoneally injected with 1 × 10^7P. berghei ANKA-parasitized erythrocytes. Treatment was initiated four hours after the mice were infected with Plasmodium parasite on the first day (D0). […] For each experimental group, animals received daily intraperitoneal doses of 1, 3, or 10 mg/kg body weight of HTX. Mice received each substance daily for 4 days (D0-D3). On the fifth day (D4), parasitemia was determined using Giemsa-stained thin blood smears prepared from the tails of each mouse. Mice were euthanized at the end of the experiment by intraperitoneal injection of pentobarbital (200 mg/kg body weight).
Finally, the percentage suppression of parasite growth was calculated using the following equation: [drawing 1]

For series [2], the system named is liver and kidney tissues of ICR mice. In words: Histopathological examination of liver and kidney tissues (H&E) in the acute toxicity test. The class given is in vivo. The settings on record: 50 mg/kg single intraperitoneal dose. Here is the method: (§1) Acute HTX toxicity was determined in non-infected ICR mice aged 6–8 weeks and weighing 25–35 g using the Organization for Economic Cooperation and Development standard criteria. Fifteen mice were randomly divided into three groups (n = 5): untreated, negative control, and HTX-treated. All mice fasted for three hours prior to the experiment, and only drinking water was available. HTX was dissolved in 2% DMSO in NSS at 50 mg/kg body weight. In the treatment group, the first mouse was intraperitoneally given a single dose of 50 mg/kg body weight HTX, whereas in the negative control group, the first mouse was intraperitoneally given 200 µL of 2% DMSO in NSS. […] All mice were anaesthetized using pentobarbital (60 mg/kg body weight) by intraperitoneal injection. Blood samples were collected via cardiac puncture into heparinized tubes for biochemical analyses. The liver and kidney tissues were collected for histological examination. The mice were subsequently euthanized with an intraperitoneal injection of pentobarbital (200 mg/kg body weight).
[…]. In brief, all tissues were fixed in 10% buffered formalin, dehydrated using a gradient series of ethanol solutions, cleaned with xylene, and deposited in a paraffin mold. The paraffin blocks were then sectioned to a thickness of 5 μm using a rotary microtome, transferred to glass slides, and stained with hematoxylin and eosin (H&E) solution. […]

Series [3] can be described thus: In vivo pharmacokinetic study after intraperitoneal administration, plasma LC-MS/MS. The note with it: 5 mg/kg intraperitoneal, ICR mice, n = 5. Here is the method: A pharmacokinetic study was conducted in non-infected ICR mice aged 6–8 weeks and weighing 25–35 g. Male ICR mice were randomly divided into two groups, each consisting of five mice. The first group is a negative control group and was injected with 150 µL of 2% DMSO in NSS, whereas the second group is a test group that was administered 5 mg/kg body weight of HTX compound intraperitoneally. Blood ([…]) was taken from the tail vein prior to administration of test compounds (0 h) and after at, 0.5, 1, 2, 3, 5, 8, 24, 48, and 72 h. Blood samples were collected in microtubes containing ethylenediaminetetraacetic acid (EDTA) and kept on ice until they were centrifuged at 3,000 × g for 10 min at 4 °C to allow the collection of plasma, which was stored at − 80 °C.
LC-MS/MS (Agilent 1290 infinity LC and Agilent 6490 triple quadrupole mass spectrometer) with an electrospray ionization (ESI, Agilent Technologies, USA) source was used to detect HTX in the plasma. Using a VertiSepTM USP C18 column (4.6 mm × 150 mm, particle size = 5 μm; Vertical Chromatography Co., ltd., Nonthaburi, Thailand), the separation was achieved. Acetonitrile:1 mM formic acid (7:3) was used as the mobile phase and was maintained at a constant flow rate of 0.5 mL/min. The injection volume was 1 µL, and column temperature was maintained at 30 °C. The following operating conditions for the MS were optimized: the source temperature was kept at 200 °C, the ion spray voltage for the positive mode was set at 3 KV, and the collision energy for HTX was set at 43 V. Nitrogen was used as the collision gas. The nebulizer and sheath gas flow rates were set to 14 and 11 L/min, respectively. The MassHunter qualitative analysis software was used to acquire the data (Agilent Technologies, Inc. Headquarters, CA, USA). HTX was quantified using the transitions for HTX at m/z 303→199 in the multiple reaction monitoring (MRM) mode.
By dissolving precisely weighed HTX and reference compounds in acetonitrile, stock HTX solutions were prepared. By diluting the stock solutions using a mixture of acetonitrile and water (2:8, v/v), a series of working solutions with concentrations between 7.81 and 1000 ng/mL were prepared. All solutions were stored at 4 °C. By spiking the blank plasma (50 µL) with 25 µL of standard working solutions, HTX calibration standards (0.78, 1.56, 3.13, 6.25, 12.5, 25.0, 50, 125, and 250 ng/mL) were prepared. The extraction solvent ethyl acetate (0.5 mL) was added to 75 µL of HTX-spiked plasma. The sample was vortexed for 1 min, followed by ultrasonic vibration for 15 min. Then, centrifugation for 10 min at 15,000 × g was done. The upper organic layer was transferred to a new microtube and dried via evaporation. The dried extract was reconstituted in 150 µL of 50% (v/v) acetonitrile in water. HTX recovery experiments were performed to confirm extraction efficacy. The effectiveness of liquid-liquid extraction was then determined by comparing the peak regions of the extracted HTX-spiked plasma with those of HTX spiked with blank plasma extract.
The plasma concentration-time profiles of HTX were determined by non-compartmental analysis with PKSolver 2.0 software. […] Additionally, the apparent volume of the central or plasma compartment, apparent volume of the peripheral compartment, transfer rate constant from the central compartment to the peripheral compartment, and transfer rate constant from the peripheral to central compartment were calculated using the two-compartment model.

The next series has as its system non-infected ICR mice. In words: Acute toxicity test, single intraperitoneal dose, 14-day observation, liver and kidney biochemical parameters. It is filed as in vivo. On the procedure: as §1
Series [4] deals with Plasmodium falciparum K1 strain. The settings on record: P. falciparum K1 strain (chloroquine-resistant), in vitro; read-out: IC50, antiplasmodial activity; cited from earlier work.
For series [5] the following is noted: cited from earlier work.
Series [6] deals with P. falciparum chloroquine-resistant (FCR3) strain. The settings on record: cited from earlier work.
Setting [7] is: 1 mg/kg intraperitoneal daily D0-D3, read on D4, P. berghei-infected ICR mice.
Setting [8] is: 3 mg/kg intraperitoneal daily D0-D3, read on D4, P. berghei-infected ICR mice.
The mark [9] stands for this setting: 10 mg/kg intraperitoneal daily D0-D3, read on D4, P. berghei-infected ICR mice.

Values joined by “and” are separate entries in the source; they are usually repeats but may differ in a detail not shown here. Equal entries are not always repeated. “Also recorded” adds a separate entry of the source. Where two headings read alike, the source gives them in different places.

One may read the Cmax as the highest concentration seen after dosing. Usually Tmax stands for the time from dosing to the highest level. As a reminder, the AUC(0-inf) is the area under the concentration-time curve extrapolated to infinity. Read a low AUC(0-inf) as less exposure. In general, IC50 refers to the concentration that inhibits the measured activity by half. Consider `COc1cc2c(=O)c3c(O)cccc3oc2c(OC)c1OC` [HTX, 1-hydroxy-5,6,7-trimethoxyxanthone], for which, in series [1] (setting [7]), the “% parasitemia” value is recorded as 21.91 ± 2.25%; the “% suppression” value is 34.56% and 34.56 ± 4.91 ^a, b, d, e %. In addition, in series [1] (setting [8]), the “% parasitemia” value is listed as 17.79 ± 2.31%; the “% suppression” value was 46.88% and 46.88 ± 3.96 ^a, b, c, e %. Besides, in series [1] (setting [9]), the “% parasitemia” value stood at 8.62 ± 1.21%; the “% suppression” value was 74.26% and 74.26 ± 3.32 ^a, b, c, d %. In series [2], the “kidney histology (H&E)” value is on record as “no histological changes; also recorded: normal; also recorded: did not present with lesions” and the “liver histology (H&E)” value is reported as “no histological changes; also recorded: normal hepatocyte histology”. In addition, in series [3] (plasma), the CL/F was 0.020 ± 0.002 (mg/kg)/(ng/mL)/h; the “MRT0−∞” value was 14.79 h and 14.795 ± 0.515 h; the Vz/F is reported as 0.405 ± 0.014 (mg/kg)/(ng/mL); the “t1/2 (elimination half-life)” value is 13.881 ± 1.231 h. Besides, in series [3] (two-compartment model), the “K21 (rate constant, peripheral to central compartment)” value was found to be 0.156 ± 0.002 h⁻¹; the “V1 (apparent volume, central or plasma compartment)” value is given as 1.633 ± 0.003 (mg/kg)/(ng/mL); the “V2 (apparent volume, peripheral compartment)” value was 19.808 ± 2.031 (mg/kg)/(ng/mL). Further, the MRT inf in series [3] (male, ICR, mouse, plasma, ip, 5 mg/kg, plasma, read-out: MRT0−∞) came out at 14.8 h. In series [3] (male, ICR, mouse, plasma, ip, 5 mg/kg, plasma, read-out: t1/2 (elimination half-life) (converted)), the half-life is 13.9 h. Moreover, in series [3] (male, mouse, ip, plasma), the Cmax was 94 ± 3.21 ng/mL and the Tmax was 0.5 ± 0.021 h. The compound also yielded an AUC(0-inf) in series [3] (male, mouse, ip, plasma, non-compartmental) of 247 ± 5.33 ng·h/mL. Also, in series [3] (male, mouse, ip, plasma, non-compartmental, read-out: AUC0 − 48 h), the AUC(0-t) worked out at 226 ± 4.74 ng·h/mL. For the same compound, the mortality entry with non-infected ICR mice (50 mg/kg single intraperitoneal dose, 24 h and following 14 days) is “No mortality; also recorded: all treated mice were alive; also recorded: did not cause mortality; also recorded: no behavioral changes or mortality”. In addition, the “effect on biochemical parameters of the liver and kidney functions” value in the series on non-infected ICR mice (50 mg/kg single intraperitoneal dose, versus untreated and negative controls) is “no significant alterations; also recorded: did not affect the liver and kidney functions”. The “median lethal dose (LD50)” value in the series on non-infected ICR mice (intraperitoneal, single dose, 14 days) is “greater than 50 mg/kg body weight”. In addition, the IC50 in series [4] is 9.57 µM.
In the case of `C[C@H]1[C@H](OC(=O)CCC(=O)O)O[C@@H]2O[C@@]3(C)CC[C@H]4[C@H](C)CC[C@@H]1[C@@]24OO3` [Artesunate, reference compound], in series [5] (in vivo), the elimination half-life was 0.8 to 1.2 h. For the same compound, in series [1] (setting [8]), the “% parasitemia” value worked out at 3.84 ± 0.54%.
Regarding `C[C@H]1[C@@H](O)O[C@@H]2O[C@@]3(C)CC[C@H]4[C@H](C)CC[C@@H]1[C@@]24OO3` [dihydroartemisinin], the elimination half-life in series [5] was 0.9 to 2 h.
For `CCN(CC)CCCC(C)Nc1ccnc2cc(Cl)ccc12` (stereo not drawn) [Chloroquine, reference compound], in series [1] (setting [8]), the “% parasitemia” value was determined as 3.42 ± 0.35% and the “% suppression” value was 92.07 ± 4.21 ^c, d, e %. Moreover, in series [1] (3 mg/kg intraperitoneal daily D0-D3, read on D4, P. berghei-infected ICR mice, listed as chloroquine), the “% suppression” value is recorded as 92.07%.
As for `CC(C)(N)CNC(=O)C[C@H]1CC[C@]2(CC1)OO[C@]1(O2)C2CC3CC(C2)CC1C3` [arterolane], in series [5] (in vivo), the elimination half-life was 2 to 4 h.
With `COc1c(O)cc2oc3cc(O)c(CC=C(C)C)c(O)c3c(=O)c2c1CC=C(C)C` [Α-Mangostin], the IC50 in series [6] is 0.2 µM.

Source of the values: publication PMC10960464, “In vivo antimalarial effect of 1-hydroxy-5,6,7-trimethoxyxanthone isolated from Mammea siamensis T. Anders. flowers: pharmacokinetic and acute toxicity studies” (BMC Complementary Medicine and Therapies, 2024).
